Data on nine compounds can be found in patent publication US12358915B2, “METTL3 inhibitory compounds” (STORM THERAPEUTICS LTD., priority 2019, dated 2025).

Like-named read-outs stand apart in the source and are kept apart here.

Assay [1] deals with T1, METTL3/14 (Homo sapiens, UniProt Q86U44).
T1 construct: The enzyme used was full-length his-tagged METTL3; His; made in house
Kind of assay: METTL3/14 methyltransferase assay (METTL3_14 RFMS, RapidFire mass spectrometry).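 Further: recombinant His-tagged METTL3 with FLAG-tagged METTL14 from baculovirus, SAH product quantified by mass spectrometry against isotope-labelled internal standards, 60 min at room temperature, scaled between no-RNA and DMSO-only wells.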 It counts as biochemical. The conditions noted are these: read-out: METTL3_14 RFMS IC50.
Description: The enzyme used was full-length his-tagged METTL3 co-expressed with full length FLAG-tagged METTL14 in a baculovirus expression system. […] After termination, plates were sealed, centrifuged and stored at 4° C. until analysis. […] Mass Spectrometry Analysis RNA methyltransferase activity was measured label free using the RapidFireTM mass spectrometry (RF/MS) platform. Stopped and stable assay plates were analyzed on the Agilent RF300 integrated autosampler/solid-phase extraction (SPE) system coupled to an ABSciex 4000 mass spectrometer for the generation of the product S-adenosyl homocysteine (SAH) and normalized to the ratio of signal of the two internal product standards, respectively. Solvent A was water containing 0.1% (v/v) TCA. Solvent B was acetonitrile/0.1% ammonium acetate (8:2, v/v). More specifically, plates were centrifuged at 4350 rpm for 10 min, samples were aspirated under vacuum for 600 ms, then loaded onto a C18 solid-phase extraction cartridge and washed for 3 s with solvent A at a flow rate of 1.5 mL/min. Retained product and internal standards were eluted with solvent B at a flow rate of 1 mL/min for 3 s and finally the cartridge was reequilibrated with solvent A for 500 ms.

Assay [2] concerns MOLM-13 cells. Nature of the assay: MOLM13 CTG - analysis of cell proliferation (Cell Titre Glo). It counts as cell-based. The conditions noted are these: Homo sapiens, geometric mean, read-out: CTG MOLM13 cells IC50 GEOMEAN.
Description: MOLM-13 or MOLM-14 cells were plated, in suspension, in 24 well tissue culture plates at final concentration of 200,000/ml, with or without 50 ng/ml IFNγ. […] Cells were incubated for 4 days at 37° C. at which point 600 μl of cell suspension was removed for Mass spectrometry analysis of m6A. 600 μl of fresh media containing the appropriate concentration of METTL3 inhibitor/IFNγ was added to remaining cell suspensions. Cells where then cultured for a further 7 days, cell suspension was sampled for analysis of proliferation and Cell surface markers periodically.
At regular time points (4, 5, 6 &7) days cells were mixed to maintain a homogenous cell suspension. 25 μl of this cell suspension was removed and added to a white 384 well plate, 25 μl of Cell Titre Glo reagent (Promega) was added, and incubated for 10 mins at room temperature before measurement of luminescence intensity, as per the manufacturers instructions.
The subject of assay [3] is Caov-3 cells. Kind of assay: Caov3 CTG assay - proliferation assay. The conditions noted are these: Homo sapiens, 120 hours treatment, 30 μM top concentration, CellTiter-Glo, geometric mean, read-out: CTG Caov3 cells IC50 GEOMEAN. It counts as cell-based. On the technique in general: ATP-based viability assays read luminescence as a measure of living cells.
Description: Upon treatment, Coav-3 cells were incubated for 10 min at RT with the CellTiter-Glo reagent (G7571, Promega). Measurement of the luminescence signal was performed on a microplate reader (Ensight, PerkinElmer).
The mark [4] stands for this setting: 5 nM METTL3/14, 0.2 μM RNA substrate, 0.5 μM SAM, lower limit of the assay IC50=5 nM, Compounds 266-351.

T1 sequence (Q86U44 whole entry): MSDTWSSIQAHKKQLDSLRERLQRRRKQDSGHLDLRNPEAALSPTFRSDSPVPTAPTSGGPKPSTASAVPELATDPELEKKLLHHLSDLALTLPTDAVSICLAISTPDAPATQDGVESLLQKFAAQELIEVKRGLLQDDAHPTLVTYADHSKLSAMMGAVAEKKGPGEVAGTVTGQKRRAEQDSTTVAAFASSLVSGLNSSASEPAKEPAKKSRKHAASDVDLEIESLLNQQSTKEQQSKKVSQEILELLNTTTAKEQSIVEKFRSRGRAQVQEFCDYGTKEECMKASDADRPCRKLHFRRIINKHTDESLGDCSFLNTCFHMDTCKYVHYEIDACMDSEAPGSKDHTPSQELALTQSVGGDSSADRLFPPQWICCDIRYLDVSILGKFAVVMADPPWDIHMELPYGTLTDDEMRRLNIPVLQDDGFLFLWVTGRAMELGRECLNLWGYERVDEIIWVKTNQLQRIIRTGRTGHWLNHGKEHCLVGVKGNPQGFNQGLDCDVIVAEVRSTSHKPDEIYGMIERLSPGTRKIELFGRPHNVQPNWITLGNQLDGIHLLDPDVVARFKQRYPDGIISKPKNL
T1 sequence (Q9HCE5 whole entry partner): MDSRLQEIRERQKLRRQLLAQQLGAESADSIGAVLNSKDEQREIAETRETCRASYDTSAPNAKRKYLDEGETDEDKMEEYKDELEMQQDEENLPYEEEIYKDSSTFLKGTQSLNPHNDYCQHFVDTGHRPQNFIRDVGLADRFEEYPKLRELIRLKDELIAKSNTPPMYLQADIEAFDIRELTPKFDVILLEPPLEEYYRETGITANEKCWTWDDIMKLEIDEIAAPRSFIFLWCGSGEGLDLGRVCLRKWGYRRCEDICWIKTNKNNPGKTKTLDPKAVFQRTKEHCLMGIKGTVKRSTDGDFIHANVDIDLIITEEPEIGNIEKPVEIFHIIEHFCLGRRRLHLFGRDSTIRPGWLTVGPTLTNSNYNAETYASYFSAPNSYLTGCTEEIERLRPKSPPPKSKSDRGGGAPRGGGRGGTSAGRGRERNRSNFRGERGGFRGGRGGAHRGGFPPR

One may read the IC50 as the concentration that gives 50% inhibition. With `COc1cc(-c2cn(Cc3cn4cc(CNCC5CCC5)ccc4n3)nn2)c2cn[nH]c2c1` [Example 270, N-(cyclobutylmethyl)-1-[2-[[4-(6-methoxy-1H-indazol-4-yl)triazol-1-yl]methyl]imidazo[1,2-a]pyridin-6-yl]methanamine], the IC50 is at most 3.63 nM in assay [1], 431 nM in assay [2] and 161 nM in assay [3].
For `COc1ccc2[nH]ncc2c1-c1cn(Cc2cn3cc(CNCC4CCC4)ccc3n2)nn1` [Example 271, N-(cyclobutylmethyl)-1-[2-[[4-(5-methoxy-1H-indazol-4-yl)triazol-1-yl]methyl]imidazo[1,2-a]pyridin-6-yl]methanamine], the IC50 came out at 6.1 nM in assay [1] (setting [4]), 1170 nM in assay [2] and 558 nM in assay [3].
Turning to `Clc1cc(-c2cn(Cc3cn4cc(CNCC5CCC5)ccc4n3)nn2)c2cn[nH]c2c1` [Example 302, 1-[2-[[4-(6-chloro-1H-indazol-4-yl)triazol-1-yl]methyl]imidazo[1,2-a]pyridin-6-yl]-N-(cyclobutylmethyl)methanamine], the IC50 in assay [1] is at most 4.35 nM; in assay [2], 629 nM; in assay [3], 211 nM.
Take `Fc1ccc(-c2cn(Cc3cn4cc(CNCC5CCCCC5)ccc4n3)nn2)c2cn[nH]c12` [Example 307, N-(cyclohexylmethyl)-1-[2-[[4-(7-fluoro-1H-indazol-4-yl)triazol-1-yl]methyl]imidazo[1,2-a]pyridin-6-yl]methanamine]: the IC50 in assay [1] (setting [4]) is 6.72 nM; in assay [2], 3680 nM; in assay [3] it was 1770 nM.
With `c1cc(-c2cn(Cc3cn4cc(CNCC5CCC5)ccc4n3)nn2)c2cn[nH]c2c1` [Example 327, N-(cyclobutylmethyl)-1-[2-[[4-(1H-indazol-4-yl)triazol-1-yl]methyl]imidazo[1,2-a]pyridin-6-yl]methanamine], the IC50 stood at 5.78 nM in assay [1] (setting [4]), 1620 nM in assay [2] and 572 nM in assay [3].
The matching figures for `FC1(F)CC(CNCc2ccc3nc(Cc4cn(-c5cccc6[nH]ncc56)nn4)cn3c2)C1` [Example 337, [(3,3-difluorocyclobutyl)methyl][(2-{[1-(1H-indazol-4-yl)-1H-1,2,3-triazol-4-yl]methyl}imidazo[1,2-a]pyridin-6-yl)methyl]amine]: 16.3 nM, 5170 nM and 3210 nM.
With `N#Cc1cc(-c2cn(Cc3cn4cc(CNCC5CCC5)ccc4n3)nn2)c2cn[nH]c2c1` [Example 338, 4-{1-[(6-{[(cyclobutylmethyl)amino]methyl}imidazo[1,2-a]pyridin-2-yl)methyl]-1H-1,2,3-triazol-4-yl}-1H-indazole-6-carbonitrile], the results for the 50% inhibitory concentration (IC50) in assay [1] (setting [4]), in assay [2] and in assay [3] were 7.49 nM, 1190 nM and 1110 nM, respectively.
The matching figures for `c1cc(-c2cn(Cc3cn4cc(CNCC5CCC5)ccc4n3)cn2)c2cn[nH]c2c1` [Example 339, N-(cyclobutylmethyl)-1-[2-[[4-(1H-indazol-4-yl)imidazol-1-yl]methyl]imidazo[1,2-a]pyridin-6-yl]methanamine]: 10.1 nM, 3070 nM and 849 nM.
The matching figures for `COc1cc(-c2cn(Cc3cn4cc(CNCC5(OC)CCC5)ccc4n3)nn2)c2cn[nH]c2c1` [Example 343, N-[(1-methoxycyclobutyl)methyl]-1-[2-[[4-(6-methoxy-1H-indazol-4-yl)triazol-1-yl]methyl]imidazo[1,2-a]pyridin-6-yl]methanamine]: 6.1 nM, 930 nM and 554 nM.
